Values joined by “and” are separate entries in the source; they are usually repeats but may differ in a detail not shown here. Equal values may be shown once.
What was measured:
[1] = test system: Glomerella lacenarium (Colletotrichum lagenarium); assay: Glomerella lagenarium liquid culture / cucumber / preventative (anthracnose); format: cell-based; settings: Colletotrichum orbiculare; 20 ppm in the applied formulation; liquid culture (PDB), growth inhibition measured photometrically 3 to 4 days after application; compared to untreated; read-out: disease control
Procedure, shortened: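 Conidia from cryogenic storage were mixed into potato dextrose broth. This was added to compound diluted from DMSO into 0.025% Tween20, tested at 20 ppm. Plates were incubated in the dark at 24 °C and 96% relative humidity, and growth was read photometrically after 2–7 days as % activity versus untreated check.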

[2] = test system: Puccinia recondita f. Sp. Tritici; assay: Puccinia recondita f. sp. tritici / wheat / leaf disc preventative (brown rust); format: in vivo; settings: foliar, 200 ppm in the applied formulation, wheat leaf segments cv. Kanzler, preventative (inoculated 1 day after application), compared to untreated, read-out: disease control
Procedure, shortened: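 Sprayed at 200 ppm one day ahead of spore inoculation, wheat leaf segments of cultivar Kanzler sat on agar under 19° C., 75% relative humidity and alternating 12-hour light and dark. Efficacy was taken as percent disease control relative to untreated segments after 7 to 9 days.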

[3] = test system: Puccinia recondita f. Sp. Tritici; assay: Puccinia recondita f. sp. tritici / wheat / leaf disc curative (brown rust); format: in vivo; settings: foliar, 24 h, 200 ppm in the applied formulation, wheat leaf segments cv. Kanzler, curative (applied 1 day after inoculation), compared to untreated, read-out: disease control
Procedure, shortened: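 Curative leaf-segment test, cv. Kanzler: spore inoculation, dark storage 19° C/75% RH, compound spray 1 day post-inoculation. Then 12 h light/12 h dark, 19° C, 75% RH. Read-out: % disease control vs untreated check, 6–8 d after application.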

Phakopsora pachyrhizi = Phakopsora pachyrhizi / soybean / leaf disc preventative (Asian soybean rust); format: in vivo; settings: foliar, 200 ppm in the applied formulation, soybean leaf disks, compared to untreated, read-out: disease control
Procedure, shortened: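 Read-out is percent disease control relative to untreated check discs, assessed once untreated discs show adequate disease, 12 to 14 days after application. Compounds, tested at 200 ppm in the applied formulation, are sprayed onto soybean leaf discs one day before inoculation with a spore suspension.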

melting point	Structure (SMILES)	inhibition of growth at 20 ppm [1] [%]	pest or weed control at 200 ppm [2] [%]	pest or weed control at 200 ppm [3] [%]	pest or weed control at 200 ppm (Phakopsora pachyrhizi) [%]
81 to 83 °C and 81 to 83.1 °C	CC(C)(C)OC(=O)NCCc1ccc(-c2noc(C(F)(F)F)n2)cc1 [Compound 2.1, tert-butyl N-[2-[4-[5-(trifluoromethyl)-1,2,4-oxadiazol-3-yl]phenyl]ethyl]carbamate]	≥ 80	≥ 80	≥ 80	
81 to 83 °C	CON(C)C(=O)NC1(c2ccc(-c3noc(C(F)(F)F)n3)cc2)CC1 [Compound 3.26, 1-methoxy-1-methyl-3-[1-[4-[5-(trifluoromethyl)-1,2,4-oxadiazol-3-yl]phenyl]cyclopropyl]urea]	≥ 80	≥ 80	≥ 80	≥ 80
133.6 to 135 °C and 133 to 145 °C	CCC(=O)NCCc1ccc(-c2noc(C(F)(F)F)n2)cc1 [Compound 1.29, N-[2-[4-[5-(trifluoromethyl)-1,2,4-oxadiazol-3-yl]phenyl]ethyl]propanamide]	≥ 80	≥ 80	≥ 80	≥ 80
94 to 103 °C	COCCC(=O)NC(C)(C)c1ccc(-c2noc(C(F)(F)F)n2)cc1 [Compound 1.94, 3-methoxy-N-[1-methyl-1-[4-[5-(trifluoromethyl)-1,2,4-oxadiazol-3-yl]phenyl]ethyl]propanamide]	≥ 80	≥ 80	≥ 80	≥ 80
92 to 100 °C	O=C(COC(F)F)NCc1ccc(-c2noc(C(F)(F)F)n2)cc1 [Compound 1.97, 2-(difluoromethoxy)-N-[[4-[5-(trifluoromethyl)-1,2,4-oxadiazol-3-yl]phenyl]methyl]acetamide]	≥ 80	≥ 80	≥ 80	≥ 80
78 to 83 °C	CON(C)C(=O)NC(C)(C)c1ccc(-c2noc(C(F)(F)F)n2)cc1 [Compound 3.25, 1-methoxy-1-methyl-3-[1-methyl-1-[4-[5-(trifluoromethyl)-1,2,4-oxadiazol-3-yl]phenyl]ethyl]urea]	≥ 80	≥ 80	≥ 80	≥ 80
152 to 155 °C	COCCNC(=O)NCc1ccc(-c2noc(C(F)(F)F)n2)cc1 [Compound 3.3]	≥ 80	≥ 80	≥ 80	≥ 80
116 to 119 °C	COC(=O)NCc1ccc(-c2noc(C(F)(F)F)n2)cc1 [Compound 2.4, methyl N-[[4-[5-(trifluoromethyl)-1,2,4-oxadiazol-3-yl]phenyl]methyl]carbamate]	≥ 80	≥ 80	≥ 80	≥ 80
151 to 153 °C	CC(C)C(=O)NCc1ccc(-c2noc(C(F)(F)F)n2)nc1 [Compound 1.106, 2-methyl-N-[[6-[5-(trifluoromethyl)-1,2,4-oxadiazol-3-yl]-3-pyridyl]methyl]propanamide]		≥ 80	≥ 80	
93 to 95 °C	C#CCOC(=O)NCc1ccc(-c2noc(C(F)(F)F)n2)cc1 [Compound 2.19, prop-2-ynyl N-[[4-[5-(trifluoromethyl)-1,2,4-oxadiazol-3-yl]phenyl]methyl]carbamate]	≥ 80	≥ 80	≥ 80	≥ 80
99 to 103 °C	COC(C)C(=O)NCc1ccc(-c2noc(C(F)(F)F)n2)nc1 (centres unmarked) [Compound 1.105, 2-methoxy-N-[[6-[5-(trifluoromethyl)-1,2,4-oxadiazol-3-yl]-3-pyridyl]methyl]propanamide]	≥ 80	≥ 80	≥ 80	
112 to 118 °C	CCC(=O)NCc1ccc(-c2noc(C(F)(F)F)n2)c(F)c1F [Compound 1.54, N-[[2,3-difluoro-4-[5-(trifluoromethyl)-1,2,4-oxadiazol-3-yl]phenyl]methyl]propanamide]	≥ 80	≥ 80	≥ 80	≥ 80
92 to 96 °C	CCOC(=O)NCCc1ccc(-c2noc(C(F)(F)F)n2)cc1 [Compound 2.5, ethyl N-[2-[4-[5-(trifluoromethyl)-1,2,4-oxadiazol-3-yl]phenyl]ethyl]carbamate]	≥ 80	≥ 80	≥ 80	≥ 80
90.2 to 93.8 °C	CON(C)C(=O)NCc1ccc(-c2noc(C(F)(F)F)n2)cc1 [Compound 3.2, 1-methoxy-1-methyl-3-[[4-[5-(trifluoromethyl)-1,2,4-oxadiazol-3-yl]phenyl]methyl]urea]	≥ 80	≥ 80	≥ 80	≥ 80
84.8 to 86.5 °C	COC(=O)NCCc1ccc(-c2noc(C(F)(F)F)n2)cc1 [Compound 2.36, methyl N-[2-[4-[5-(trifluoromethyl)-1,2,4-oxadiazol-3-yl]phenyl]ethyl]carbamat]	≥ 80	≥ 80	≥ 80	≥ 80
95 to 99 °C	COCC(=O)NC1(c2ccc(-c3noc(C(F)(F)F)n3)cc2)CC1 [Compound 1.96, 2-methoxy-N-[1-[4-[5-(trifluoromethyl)-1,2,4-oxadiazol-3-yl]phenyl]cyclopropyl]acetamide]	≥ 80	≥ 80	≥ 80	≥ 80
140 to 143 °C	CCC(=O)NCc1ccc(-c2noc(C(F)(F)F)n2)cc1C [Compound 1.81, N-[[2-methyl-4-[5-(trifluoromethyl)-1,2,4-oxadiazol-3-yl]phenyl]methyl]propanamide]	≥ 80			
174.1 to 176.4 °C	CCCNC(=O)NCc1ccc(-c2noc(C(F)(F)F)n2)cc1 [Compound 3.6, 1-propyl-3-[[4-[5-(trifluoromethyl)-1,2,4-oxadiazol-3-yl]phenyl]methyl]urea]	≥ 80	≥ 80		≥ 80
95 to 98 °C	CC(C)(O)C(=O)NCc1ccc(-c2noc(C(F)(F)F)n2)cc1 [Compound 1.104, 2-hydroxy-2-methyl-N-[[4-[5-(trifluoromethyl)-1,2,4-oxadiazol-3-yl]phenyl]methyl]propanamide]	≥ 80	≥ 80	≥ 80	
107 to 112 °C	O=C(CO)NCc1ccc(-c2noc(C(F)(F)F)n2)cc1 [Compound 1.27, 2-hydroxy-N-[[4-[5-(trifluoromethyl)-1,2,4-oxadiazol-3-yl]phenyl]methyl]acetamide]	≥ 80	≥ 80	≥ 80	
126 to 130 °C	CCC(=O)NCc1ccc(-c2noc(C(F)(F)F)n2)cc1Cl [Compound 1.32, N-[[2-chloro-4-[5-(trifluoromethyl)-1,2,4-oxadiazol-3-yl]phenyl]methyl]propanamide]	≥ 80	≥ 80		≥ 80
60 to 66 °C	CCOCCOC(=O)NCc1ccc(-c2noc(C(F)(F)F)n2)cc1C(F)(F)F [Compound 2.2, 2-ethoxyethyl N-[[2-(trifluoromethyl)-4-[5-(trifluoromethyl)-1,2,4-oxadiazol-3-yl]phenyl]methyl]carbamate]	≥ 80			
113 to 118 °C	COCCC(=O)NC1(c2ccc(-c3noc(C(F)(F)F)n3)cc2)CC1 [Compound 1.98, 3-methoxy-N-[1-[4-[5-(trifluoromethyl)-1,2,4-oxadiazol-3-yl]phenyl]cyclopropyl]propanamide]	≥ 80	≥ 80	≥ 80	
100 to 102 °C	CCC(=O)NCc1ccc(-c2noc(C(F)(F)F)n2)cc1C(F)(F)F [Compound 1.31, N-[[2-(trifluoromethyl)-4-[5-(trifluoromethyl)-1,2,4-oxadiazol-3-yl]phenyl]methyl]propanamide]				

Reference: patent US10501425B2, “Microbiocidal oxadiazole derivatives” (SYNGENTA PARTICIPATIONS AG, priority 2015, dated 2019)
